In ChEMBL document CHEMBL5260832, “Hepatoprotective natural triterpenoids” (Eur J Med Chem, 2018):

Experiments:
[1] = test system: Hepatocyte; experiment: Hepatoprotective activity against D-GaIN/TNFalpha-induced cell death in mouse hepatocyte at 200 uM relative to control; type: functional
[2] = test system: Hepatocyte; experiment: Hepatoprotective activity against D-GaIN/TNFalpha-induced cell death in mouse hepatocyte at 100 uM relative to control; type: functional, cell-based; conditions: dose 100 µM
[3] = test system: Hepatocyte; experiment: Hepatoprotective activity against D-GaIN/TNFalpha-induced cell death in mouse hepatocyte at 50 uM relative to control; type: functional
[4] = test system: Hepatocyte; experiment: Hepatoprotective activity against D-GaIN/TNFalpha -induced cell death in mouse hepatocyte assessed as inhibition at 50 uM relative to control; type: functional; set-up: scale not given: the % may be the effect or the level left
[5] = Cytotoxicity against human HepG2 cells assessed as reduction in cell viability by SRB assay; type: toxicity, cell-based
[6] = Hepatoprotective activity against D-GaIN - induced toxicity in rat WB-F344 cells assessed as inhibition of cell growth relative to control; type: functional; set-up: scale not given: the % may be the effect or the level left
[7] = Hepatoprotective activity against D-Galactosamine-induced toxicity in rat WB-F344 cells assessed as cell survival rate at 10 uM relative to control; type: functional
[8] = test system: Mus musculus; experiment: Hepatoprotective activity against D-GaIN/CCl4 induced liver injury mouse model assessed as reduction in GPT level at 1.0 microg/ml, iv relative to control; type: functional; set-up: scale not given: the % may be the effect or the level left; conditions: dose 1 µg/ml
[9] = Hepatotoxicity in rat assessed as reduction in GPT level at 0.01 mg/mL measured after 48 hrs (reference value: 291 IU/L); type: toxicity; conditions: in vivo
[10] = test system: Hepatocyte; experiment: Hepatoprotective activity against D-GaIN/TNFalpha-induced cell death in mouse hepatocyte at 100 uM; type: functional, cell-based
[11] = test system: Hepatocyte; experiment: Hepatoprotective activity against D-GaIN/TNFalpha-induced cell death in mouse hepatocytes at 50 uM assessed as inhibition of cell death relative to control; type: functional; set-up: scale not given: the % may be the effect or the level left
[12] = test system: HepG2; experiment: Hepatoprotective activity against H2O2-induced human HepG2 cells assessed as increase in ALT level; type: functional
[13] = test system: HepG2; experiment: Hepatoprotective activity against H2O2-induced human HepG2 cells assessed as increase in AST level; type: functional
[14] = Hepatotoxicity in rat assessed as reduction in GPT level at 1.0 mg/mL measured after 48 hrs (reference value: 291 IU/L); type: toxicity; conditions: in vivo
[15] = test system: Rattus norvegicus; experiment: Hepatoprotective activity in GaIN-induced rat model of liver injury assessed as reduction in ALT level at 4 mg/kg relative to control; type: functional; set-up: scale not given: the % may be the effect or the level left
[16] = test system: Mus musculus; experiment: Hepatoprotective activity in mouse model of D-GaIN/LPS-induced liver injury assessed as inhibition of sAST secretion at 100 mg/kg, po relative to control; type: functional
[17] = test system: Mus musculus; experiment: Hepatoprotective activity in mouse model of D-GaIN/LPS-induced liver injury assessed as inhibition of sALT level secretion at 100 mg/kg, po relative to control; type: functional
[18] = test system: Hepatocyte; experiment: Hepatoprotective activity against D-GaIN-induced toxicity in mouse hepatocyte relative to control; type: functional, cell-based
[19] = test system: Hepatocyte; experiment: Hepatoprotective activity against H2O2-induced cell damage in rat hepatocyte assessed as reduction in cell growth; type: functional, cell-based
[20] = test system: Hepatocyte; experiment: Hepatoprotective activity against D-GaIN/TNFalpha-induced cell death in mouse hepatocyte at 25 uM relative to control; type: functional
[21] = test system: Mus musculus; experiment: Hepatoprotective activity against D-GaIN/LPS induced liver injury mouse model assessed as reduction in sALT at 100 mg/kg, ip relative to control; type: functional; set-up: scale not given: the % may be the effect or the level left
[22] = test system: Mus musculus; experiment: Hepatoprotective activity against D-GaIN/LPS induced liver injury mouse model assessed as reduction in sAST at 100 mg/kg, ip relative to control; type: functional; set-up: scale not given: the % may be the effect or the level left
[23] = organism: Mus musculus; experiment: Hepatoprotective activity against D-GaIN/LPS induced liver injury mouse model assessed as increase in sAST relative to control; type: functional
[24] = organism: Mus musculus; experiment: Hepatoprotective activity against D-GaIN/LPS induced liver injury mouse model assessed as increase in sALT relative to control; type: functional

CC1(C)CC[C@]2(C(=O)O[C@@H]3O[C@H](CO)[C@@H](O)[C@H](O)[C@H]3O)CC[C@]3(C)[C@H](C=C[C@@H]4[C@@]5(C)C[C@@H](O)[C@H](O)[C@@](C)(CO)[C@@H]5CC[C@]43C)[C@H]2[C@@H]1O
Activity [1]: 8%
Activity [2]: 8%
Activity [3]: 8%

C=C(C)[C@@H]1CC[C@]2(C(=O)O[C@@H]3O[C@H](CO)[C@@H](O)[C@H](O)[C@H]3O)CC[C@]3(C)[C@H](CC[C@@H]4[C@@]5(C)C[C@@H](O)[C@H](O)[C@](C)(CO)[C@@H]5CC[C@]43C)[C@@H]12
Activity [4]: 40.9%

CC1=C[C@@]2(C[C@H]([C@H]3CC[C@@]4(C)[C@@H]5CC[C@H]6C(C)(C)[C@@H](O)C=C[C@@]67C[C@@]57CC[C@]34C)[C@@H](O)O2)OC1=O
EC50 [5]: 123 µM

CC1(C)CC[C@]2(C(=O)O[C@@H]3O[C@H](CO)[C@@H](O)[C@H](O)[C@H]3O[C@@H]3OC[C@@H](O)[C@H](O)[C@H]3O)CC[C@]3(C)C(=CC[C@@H]4[C@@]5(C)C[C@@H](O)[C@@H](O)C(C)(C)[C@@H]5CC[C@]43C)[C@@H]2[C@@H]1O
Activity [6]: 68%
Activity [7]: 68%

CC1(C)C[C@H]2C3=C[C@@H](O)[C@@H]4[C@@]5(C)CCC(=O)C(C)(C)C5CC[C@@]4(C)[C@]3(C)CC[C@@]2(C(=O)O)CC1=O (stereo partly drawn)
Activity [8]: 24%

CC1=C[C@@]2(C[C@H]([C@H]3CC[C@@]4(C)[C@@H]5CC[C@H]6C(C)(C)[C@@H](O)C=C[C@@]67C[C@@]57CC[C@]34C)[C@H](O)O2)OC1=O
EC50 [5]: 37.9 µM

C[C@@]1(CO)CC[C@]2(C(=O)O[C@@H]3O[C@H](CO[C@@H]4O[C@H](CO)[C@@H](O)[C@H](O)[C@H]4O)[C@@H](O)[C@H](O[C@@H]4O[C@H](CO)[C@@H](O)[C@H](O)[C@H]4O)[C@H]3O)CC[C@]3(C)C(=CC[C@@H]4[C@@]5(C)CC[C@H](O[C@@H]6O[C@H](CO)[C@@H](O)[C@H](O)[C@H]6O)[C@@](C)(C(=O)O)[C@@H]5CC[C@]43C)[C@@H]2C1
Activity [9]: 253 IU/L

CC1=C(C)[C@H]2C3=CC[C@@H]4[C@@]5(C)C[C@@H](O)[C@H](O)[C@@](C)(CO)[C@@H]5CC[C@@]4(C)[C@]3(C)CC[C@@]2(C(=O)O[C@@H]2O[C@H](CO)[C@@H](O)[C@H](O)[C@H]2O)CC1
IC50 [10]: 33.6 µM
Activity [11]: 8.3%

CC(=O)[C@H]1CC(=O)[C@@]2(C)C3=C(C(=O)C[C@]12C)[C@@]1(C)CC[C@H](O)C(C)(C)[C@@H]1C[C@@H]3O [LUCIDONE A]
Activity [12]: 17.46 U/L
Activity [13]: 21.18 U/L

CC1(C)CC[C@]2(C(=O)O[C@@H]3O[C@H](CO)[C@@H](O)[C@H](O)[C@H]3O)CC[C@]3(C)C(=CC[C@@H]4[C@@]5(C)CC[C@H](O[C@@H]6O[C@H](CO)[C@@H](O)[C@H](O)[C@H]6O)C(C)(C(=O)O)[C@@H]5CC[C@]43C)[C@@H]2C1 (stereo partly drawn)
Activity [9]: 271 IU/L
Activity [14]: 279 IU/L

C/C(=C\CC[C@@H](C)[C@H]1CC[C@@]2(C)C3=CC[C@H]4C(C)(C)[C@@H](O)CC[C@]4(C)C3=CC[C@]12C)CO [GANODEROL B]
Activity [12]: 18.97 U/L
Activity [13]: 26.42 U/L

COC(=O)[C@]12CC[C@@H](C)[C@H](C)[C@H]1C1=CC[C@@H]3[C@@]4(C)C[C@@H](OC)C(=O)[C@@](C)(C=O)[C@@H]4CC[C@@]3(C)[C@]1(C)CC2
Activity [15]: 52.3%

CC1(C)CC[C@]2(C(=O)O[C@@H]3O[C@H](CO)[C@@H](O)[C@H](O)[C@H]3O[C@@H]3OC[C@@H](O)[C@H](O)[C@H]3O)CC[C@]3(C)C(=CC[C@@H]4[C@@]5(C)C[C@@H](O)[C@@H](O)[C@@](C)(CO)[C@@H]5CC[C@]43C)[C@@H]2[C@@H]1O
Activity [6]: 64%
Activity [7]: 64%

C[C@@H]1CC[C@]2(C(=O)O[C@@H]3O[C@H](CO)[C@@H](O)[C@H](O)[C@H]3O)CC[C@]3(C)C(=CC[C@@H]4[C@@]5(C)C[C@@H](O)[C@@H](O)C(C)(C)[C@@H]5CC[C@]43C)[C@@H]2[C@]1(C)O
inhibition in vivo at 100 mg/kg [16]: 59.7%
inhibition in vivo at 100 mg/kg [17]: 57.2%
IC50 [18]: 14.1 µM

CC1(C)CC[C@]2(C(=O)O)CC[C@]3(C)[C@H](C=C[C@@H]4[C@@]5(C)C[C@@H](O)[C@H](O)[C@@](C)(CO)[C@@H]5CC[C@]43C)[C@H]2[C@@H]1O
Activity [1]: 8%
Activity [2]: 8%
Activity [3]: 8%

CC1(C)CC[C@]2(C(=O)O[C@@H]3O[C@H](CO)[C@@H](O)[C@H](O)[C@H]3O)CC[C@]3(C)C(=CC[C@@H]4[C@@]5(C)C[C@@H](O)[C@@H](O)[C@](C)(CO)[C@@H]5CC[C@]43C)[C@@H]2[C@@H]1O
Activity [6]: 61%
Activity [7]: 61%

CC1=C[C@]2(C=C([C@H]3CC[C@@]4(C)[C@@H]5CC[C@H]6C(C)(C)C(=O)C=C[C@]67C[C@]57CC[C@]34C)C(=O)N2)OC1=O
EC50 [19]: 167 µM

CC1=C[C@]2(C=C([C@H]3CC[C@@]4(C)[C@@H]5CC[C@H]6C(C)(C)C(=O)C=C[C@@]67C[C@@]57CC[C@]34C)C(=O)N2)OC1=O
EC50 [19]: 126 µM

CC(=O)N[C@@H](CS)C(=O)O [ACETYLCYSTEINE]
EC50 [19]: 106 µM

C[C@@H]1CC[C@]2(C(=O)O[C@@H]3O[C@H](CO)[C@@H](O)[C@H](O)[C@H]3O)CC[C@]3(C)C(=CC[C@@H]4[C@@]5(C)C[C@@H](O)[C@H](O)C(C)(C)[C@@H]5CC[C@]43C)[C@@H]2[C@]1(C)O
IC50 [10]: 55.7 µM
inhibition in vivo at 100 mg/kg [16]: 65.2%
inhibition in vivo at 100 mg/kg [17]: 71.1%
IC50 [18]: 35.5 µM

CC1=C2C3=CC[C@@H]4[C@@]5(C)C[C@@H](O)[C@H](O)[C@@](C)(CO)[C@@H]5[C@H](O)C[C@@]4(C)[C@]3(C)CC[C@@]2(C(=O)O[C@@H]2O[C@H](CO)[C@@H](O)[C@H](O)[C@H]2O)CC[C@H]1C [QUADRANOSIDE V]
IC50 [10]: 30.2 µM
Activity [11]: 67.5%

C[C@@]1(CO)CC[C@]2(C(=O)O[C@@H]3O[C@H](CO[C@@H]4O[C@H](CO)[C@@H](O)[C@H](O)[C@H]4O)[C@@H](O)[C@H](O)[C@H]3O)CC[C@]3(C)C(=CC[C@@H]4[C@@]5(C)CC[C@H](O[C@@H]6O[C@H](CO)[C@@H](O)[C@H](O)[C@H]6O)[C@@](C)(C(=O)O)[C@@H]5CC[C@]43C)[C@@H]2C1
Activity [9]: 215 IU/L

C[C@@]1(CO)CC[C@]2(C(=O)O[C@@H]3O[C@H](CO)[C@@H](O)[C@H](O)[C@H]3O)CC[C@]3(C)[C@H](C=C[C@@H]4[C@@]5(C)C[C@@H](O)[C@H](O)[C@@](C)(CO)[C@@H]5CC[C@]43C)[C@H]2C1
Activity [20]: 15.1%
Activity [1]: 8%
Activity [2]: 8%
Activity [3]: 8%

COC(=O)C(C)[C@@H](O)C(=O)C[C@@H](C)[C@H]1C[C@H](O)[C@@]2(C)[C@@H]3C(=O)C[C@H]4C(C)(C)[C@@H](O)CC[C@]4(C)[C@H]3C(=O)C[C@]12C (stereo partly drawn)
Activity [12]: 18.51 U/L
Activity [13]: 19.5 U/L

COC(=O)[C@]12CC[C@@H](C)[C@H](C)[C@H]1C1=CC[C@@H]3[C@@]4(C)C[C@@H](OC(C)=O)C(=O)[C@@](C)(C=O)[C@@H]4CC[C@@]3(C)[C@]1(C)CC2
Activity [15]: 66.4%

C=C(C)[C@@H]1CC[C@]2(C(=O)O[C@@H]3O[C@H](CO)[C@@H](O)[C@H](O)[C@H]3O)CC[C@]3(C)[C@H](CC[C@@H]4[C@@]5(C)C[C@@H](O)[C@H](O)C(C)(C)[C@@H]5CC[C@]43C)[C@@H]12
Activity [4]: 37.6%

CC1(C)C[C@H]2C3=CC[C@@H]4[C@@]5(C)CCC(=O)C(C)(C)C5CC[C@@]4(C)[C@]3(C)CC[C@@]2(C(=O)O)CC1=O (stereo partly drawn)
Activity [8]: 43%

CO[C@@H]1C=C2[C@@H]3CC(C)(C)C(=O)C[C@]3(C(=O)O)CC[C@@]2(C)[C@]2(C)CCC3C(C)(C)C(=O)CC[C@]3(C)[C@@H]12 (stereo partly drawn)
Activity [8]: 48%

CC(C)=CCC[C@](C)(O)C1CC[C@]2(C)[C@@H]1[C@H](O[C@H]1O[C@@H](CO[C@@H]3O[C@@H](CO)[C@H](O)[C@H]3O)[C@H](O)[C@@H](O)[C@@H]1O)C[C@@H]1[C@@]3(C)CC[C@H](O[C@@H]4O[C@H](CO)[C@@H](O)[C@H](O)[C@H]4O[C@@H]4O[C@H](CO)[C@@H](O)[C@H](O)[C@H]4O)C[C@@H]3CC[C@]12C (stereo partly drawn)
Activity [21]: 33%
Activity [22]: 40%
Activity [23]: 87%
Activity [24]: 89%
